Data reported in US4859688A, “Method for the treatment and prevention of arteriosclerosis with nitrophenyl substituted dihydropyridines” (priority 1984, dated 1989).

Key:
rabbit carotid artery [1] = test: Effect on arteriosclerotic change induced by cuff in rabbit carotid artery (Test 1); type: in vivo; conditions: intramuscular, 5 days each week, 3 weeks, index scale 0-3
From the text: Effect on arteriosclerotic change induced by cuff in rabbit carotid artery
The arteriosclerosis which is characterized by intimal thickening was made in rabbits (about 2 kg weight) by the following method.
Under pentobarbital anesthesia, the left carotid artery was isolated from the surrounding tissue, put into a cuff (1.5 cm long PE-280) through a longitudinal slit and was returned to the place as it was. Then, the wound was sutured and the rabbits were recovered and fed with normal diet. Three weeks after surgery, the rabbits were anesthetized with pentobarbital and sections were taken of the carotid artery. The part of the artery covered by a cuff was examined under microscope for the arteriosclerotic index which was rated at 0, 1, 2 and 3 according to the degree of intimal thickening. For each rabbit, about 30 transverse sections were taken at random, and the mean arteriosclerotic index was used for the determination of the effect. Test Compound was suspended in 0.5% methyl cellulose and injected intramuscularly for 5 days each week beginning from one day after cuff treatment to one day before sacrifice. The injection volume was adjusted to 0.5 ml/kg.

rabbit carotid artery [2] = test: Induction of intimal thickening of rabbit carotid artery by polyethylene cuff treatment (Test 2); type: in vivo, male Japanese white rabbits; conditions: intramuscular once a day, 3 weeks, index scale 0-3
Procedure: Induction of intimal thickening of rabbit carotid artery by polyethylene cuff treatment Eight (8) male Japanese white rabbits weighing about 2 kg were used for each test group. The rabbits were anesthetized with 12.5 mg/kg petobarbital and the left carotid artery was isolated with care not to injure the surrounding tissues. A polyethylene cuff (1.5 cm long PE280, inner diameter 2.15 mm, outer diameter 3.25 mm, made by Becton Dickinson & Co.) was placed around the artery according to the technique reported by Rosnowski et al. (CR. Acad, Sci. Paris, 271 (1970) 1467). The rabbits were maintained for 3 weeks on normal diet and water. Test Compounds and vehicles were given intramuscularly once a day starting from the day of cuff-placement. At the end of the 3rd week, the rabbits were heparinized (500 U, i.v.), and the artery was removed, washed free of blood with saline, fixed by immersion in 10% formalin and divided into 8 cross segments about 2 mm long. The segments were embedded in paraffin and cut into transverse sections. These sections were stained with orcein. About 70 transverse sections were prepared from each artery and used for the quantitation of the Arteriosclerotic Index. Quantitation of Arteriosclerotic Index The arterial sections were observed by light microscopy and the Arteriosclerotic Index was scored as follows. 0: No thickening. 1: slight hyperplasia in the subendothelial space with intima-media ratio of about 1/10. 2: several layers of cells in the subendothelial space with intima-media ratio of about 1/5, or parts of the subendothelial space with more hyperplasia. 3: sever hyperplasia throughout the subendothelial space with intima-media ratio of more than 1/3.

[3] = test system: rat aortic smooth muscle cells (SMC); test: Inhibition of migration of smooth muscle cell (SMC), modified Boyden chamber (Test 3); type: cell-based, rat (male Wistar); conditions: 5% zymosan-activated air pouch exudates as attractant, 8 hours, 37° C.
Procedure: Inhibition of migration of smooth muscle cell (SMC)
Preparation of inflammatory exudates from zymosan-activated air pouch in rats:
Inflammatory exudates were obtained according to the method of Konno and Tsurufuji [Br. J. Pharmacol., 80 (1983) 269]. Seven-week-old male Wistar rats were injected subcutaneously with 12 ml of air on the back to make a pouch. Twenty-four hours later 6 ml of 1.6% (W/V) zymosan suspension in 0.5% (W/V) methyl cellulose solution in saline was injected into the pouch to induce inflammation. After 3 days the inflammatory exudates were collected with pipets and centrifuged for 15 minutes at 2,000 G. The supernatant was stored at -80° C. until used.
Culture of rat aortic smooth muscle cells (SMC):
Rat aortic SMC were isolated and cultured by the method of Ross [J. Cell Biol. 50 (1971) 172]. […]
Migration of SMC was examined in modified Boyden chambers using a filter membrane with pores of 8 μm diameter [Atherosclerosis, 43 (1982) 143]. […] SMC migration was quantitated microscopically by counting the number of cells that migrated into the filter to a depth of 30μm. Ten high-power fields (HPF, x 400) were examined for each filter and cell migration was expressed as cells per 10 HPF.

thoracic aorta = test: Inhibition of vitamin-D3-induced rise in Ca content of the thoracic aorta (Test 4); conditions: for Ca content of the thoracic aorta (means± standard error): 10μg/kg 1-α hydroxyvitamin D3 orally once a day for 2 weeks; for ED50: Rattus norvegicus, po, 336 h, read-out: ED50, inhibition of vitamin-D3-induced rise in Ca content of the thoracic aorta

| SMILES | Arteriosclerotic Index (rabbit carotid artery [1]; 1.0 mg/kg) | Arteriosclerotic Index (rabbit carotid artery [1]; 10 mg/kg) | Arteriosclerotic Index (mean±standard error) (rabbit carotid artery [2]; 1 mg/kg) | Arteriosclerotic Index (mean±standard error) (rabbit carotid artery [2]; 10 mg/kg) | IC50 [3] [nM] | Ca content of the thoracic aorta (means± standard error) (thoracic aorta; 0.1 mg/kg per os twice a day) | Ca content of the thoracic aorta (means± standard error) (thoracic aorta; 1 mg/kg per os twice a day) | Ca content of the thoracic aorta (means± standard error) (thoracic aorta; 10 mg/kg per os twice a day) | Ca content of the thoracic aorta (means± standard error) (thoracic aorta; 100 mg/kg per os twice a day) | ED50 (thoracic aorta) [mg/kg] |
| --- | --- | --- | --- | --- | --- | --- | --- | --- | --- | --- |
| COC(=O)C1=C(C#N)NC(C)=C(C(=O)OC(C)C)C1c1cccc([N+](=O)[O-])c1 (centres unmarked) [Dihydropyridine Compound A, Isopropyl ester of 6-cyano-5-methoxycarbonyl-2-methyl-4-(3-nitrophenyl)-1,4-dihydropyridine-3-carboxylic acid] | 0.85 ± 0.16 | 0.61 ± 0.21 | 0.85 ±0.15 | 0.61 ±0.19 | 0.033 | 94 ± 9 % of control | 57 ± 13 % of control | 27 ± 6 % of control | 8 ± 3 % of control | 2.2 |
| COC(=O)C1=C(C)NC(C)=C(C(=O)OC)C1c1ccccc1[N+](=O)[O-] [Nifedipine, Dimethyl ester of 2,6-dimethyl-4-(2-nitrophenyl)-1,4-dihydropyridine-3,5-dicarboxylic acid, reference compound] |  |  | 0.94 ±0.21 | 1.19 ±0.26 | 0.17 |  | 93 ± 15 % of control | 58 ± 15 % of control | 30 ± 10 % of control | 23.2 |
